# Reference: patent US10787423B2, “Piperazine and piperidine derivatives, their synthesis and use thereof in inhibiting VDAC oligomerization, apoptosis and mitochondria dysfunction” (THE NATIONAL INSTITUTE FOR BIOTECHNOLOGY IN THE NEGEV LTD., priority 2015, dated 2020)
# Columns and labels:
# [1] = test system: Cyto c release from mitochondria; assay: Selenite-induced Cytochrome c release from mitochondria in HEK-293 cells; type: cell-based; conditions: Homo sapiens, HEK293, compound 2 h then selenite 15 μM 4 h, means±SD (n=3)
# Procedure: One of the ways cell apoptosis is activated is by release of Cytochrome c (Cyto c) from the mitochondria into cytosol. […] Cyto c released to the cytosol may be analyzed by immunoblotting using Cyto c-specific antibodies.
# Cells treated with apoptosis inducers in the absence or presence of the tested compounds were harvested, washed twice with PBS, pH 7.4 and gently resuspended at 6 mg/ml in ice-cold buffer (100 mM KCl, 2.5 mM MgCl2, 250 mM sucrose, 20 mM HEPES/KOH pH 7.5, 0.2 mM EDTA, 1 mM dithiothreitol, 1 μg/ml leupeptin, […] and 0.1 mM PMSF) containing 0.025% digitonin and incubated for 10 min on ice. Samples were centrifuged at 10,000×g (relative centrifugal force—RCF) at 4° C. for 5 min to obtain supernatants (cytosolic extracts free of mitochondria) and pellet (fraction that contains mitochondria). Cytochrome c released to the cytosol was analyzed by immunoblotting using Cytochrome c-specific antibodies. Anti-VDAC1 and anti-GAPDH antibodies were used to verify that the cytosolic extracts are mitochondria-free.
# c. Cytochrome c (Cyto c) release was determined as described above in Methods (Cytochrome c release from mitochondria). Briefly, to assess Cyto c release, cells were incubated on ice for 10 min with 0.025% digitonin, centrifuged, and the pellet (mitochondria—Mito) and supernatants (cytosol—Cytos) were subjected to SDS-PAGE and immunoblotting, using anti-Cyto c, antibodies. Anti-VDAC1 and anti-GAPDH antibodies were used to verify that the cytosolic extracts are mitochondria-free. The results of Cyto c release from the mitochondria as induced by selenite are presented as immunoblots, with the cytosolic and mitochondrial fractions confirmed by immunoblotting of GAPDH (glyceraldehyde-3-phosphate dehydrogenase) and VDAC1, respectively, in the FIG. 15d. The data are presented as percent inhibition. The results shown correspond to means±SD (n=3). The closed circle (●) indicates VBIT-4 (compound of Formula 1), the open circle (◯) indicates compound of Formula 10 (AKOS-022), and an open square (□) indicates VBIT-3 (compound of Formula 2).
# d. […]
# HEK-293 cells = assay: Selenite-induced apoptosis, annexin V-FITC/PI staining and FACS, HEK-293 cells; type: cell-based; conditions: Homo sapiens, HEK293, compound 2 h then selenite 15 μM 4 h, means±SD (n=3)
# Procedure: The ability of the compounds of general Formulae (I), (Ia), (Ib), (Ic), (Id), (II) and (IIa) to inhibit apoptosis may be analyzed by annexin-V/propidium iodide (PI) staining and flow cytometry.
# Cells, e.g. HeLa cells (2×10^5), untreated or treated with apoptosis-inducing reagents, were analyzed for apoptotic cell death using PI, annexin V-FITC and flow cytometer analysis. Cells were collected (1500×g for 10 min), washed, and resuspended in 200 μl binding buffer (10 mM HEPES/NaOH, pH 7.4, 140 mM NaCl, and 2.5 mM CaCl2). Annexin V-FITC was added according to the recommended Protocol (Enzo Life Sciences, Switzerland), and the cells were incubated in the dark for 15 min. Cells were then washed with binding buffer and resuspended in 200 μl binding buffer, to which PI was added immediately before flow cytometry analysis. At least 10,000 events were collected, recorded on a dot plot, and analyzed by the FACSCalibur™ flow cytometer software (BD Biosciences, Franklin Lakes, N.J.).
# b. Additionally, the inhibition of selenite-induced apoptosis by the compounds as analyzed using annexin V-FITC/PI staining and FACS, presented in the FIG. 15c.
# (§1) d. IC50 values of the tested compounds were derived from the obtained data. The results shown correspond to means±SD (n=3).
# [2] = test system: 5XFAD transgenic mice with AD-like disease; assay: Radial-arm water maze learning and memory task in 5XFAD transgenic mice; type: in vivo, mouse; conditions: 5XFAD mice, 20 mg/kg in drinking water for 4 months, tested at six months of age
# Procedure: Animals at age two months were assigned to three groups: transgenic treated (TG-T, 8 males and 3 females), transgenic vehicle (TG-V, 8 males and 3 females), and wild type (WT, 10 males and 8 females).
# Two-months old 5XFAD mice were provided with 0.9% of DMSO solution or VBIT-4 solution (20 mg/kg in 0.9% DMSO) in drinking water replaced with fresh solution three times a week in the first month and thereafter twice a week for additional 3 months.
# When the mice reached the age of six months, a two-day radial-arm water maze (RAWM) trial was performed as described previously (Jennifer Alamed, et al, Nature Protocols 1, (2006) 1671-1679) to test the effect of VBIT-4 on learning and memory task. The RAWM containing six swim paths (arms) was used. The arms were extending out from an open central area with an escape platform located at the end of one arm (the goal arm). The goal arm location remained constant for a given mouse. On day 1, mice were trained for 15 trials (spaced over 3 h), with trials alternating between visible and hidden platforms. On day 2, mice were trained for 15 trials with the hidden platform.
# Entry into an incorrect arm was scored as an error, and the times spent by the animal to find the platform were recorded. […] To examine the source of differences the post-hoc test of Bonferroni-type was used. […]
# [3] = IC50 for several activities / effective range (activity not specified); conditions: quoted for comparison with brain levels
# VDAC1 = VDAC1 (Homo sapiens, UniProt P21796); assay: Selenite-induced VDAC1 oligomerization by EGS cross-linking and immunoblot in HEK-293 cells (Method B); type: cell-based; set-up: endogenous in cells; host or cells: HEK-293; conditions: HEK-293 cells, compound 2 h then selenite 15 μM 4 h; means±SD (n=3); read-out: VDAC1 oligomerization IC50
# Chain of VDAC1 (P21796 whole entry): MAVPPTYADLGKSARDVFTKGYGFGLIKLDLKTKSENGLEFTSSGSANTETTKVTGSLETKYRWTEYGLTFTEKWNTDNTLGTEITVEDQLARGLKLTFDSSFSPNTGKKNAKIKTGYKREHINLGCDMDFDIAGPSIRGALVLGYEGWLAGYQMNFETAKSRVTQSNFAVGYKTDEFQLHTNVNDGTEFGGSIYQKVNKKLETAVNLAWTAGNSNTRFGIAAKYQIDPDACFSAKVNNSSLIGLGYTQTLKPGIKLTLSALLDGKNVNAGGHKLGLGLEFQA
# Procedure: Appropriate test cells (2.5-3 mg/ml) in PBS, were harvested after the treatment and incubated with the cross-linking reagent EGS at a ratio of 100-300 μM for sample of 2-3 mg protein/ml concentration (pH 8.3) for 15 minutes. Protein concentration was determined according to Lowry assay. Samples (60-80 μg protein) were subjected to SDS-PAGE by a standard technique and immunoblotting was performed using anti-VDAC1 antibodies. Gels were electro-transferred onto nitrocellulose membranes for immuno-staining. The membranes were incubated with a blocking solution containing 5% non-fat dry milk and 0.1% Tween-20 in Tris-buffered saline, followed by incubation with monoclonal anti-VDAC1, anti-Cytochrome c, anti-AIF or anti-actin antibodies. Membranes were then incubated with HRP-conjugated anti-mouse or anti-rabbit IgG (1:10,000), serving as secondary antibodies. Antibody labeling was detected by chemiluminescence. To detect VDAC1 oligomers, membranes were treated with 0.1 M glycine, pH 2.0, prior to immunoblotting and washed several times with 0.1% Tween-20 in Tris-buffered saline. Quantitative analysis of immuno-reactive VDAC1 dimer, trimer and multimer bands was performed using FUSION-FX (Vilber Lourmat, France).
# The closed circle (●) indicates VBIT-4 (compound of Formula 1), the open circle (◯) indicates compound of Formula 10, and an open square (□) indicates VBIT-3 (compound of Formula 2).
# as §1
structure (smiles),measurement,setting,value
"O=C(CC(CO)N1CCN(c2ccc(OC(F)(F)F)cc2)CC1)Nc1ccc(Cl)cc1 (racemic) [Formula 1, N-(4-chlorophenyl)-4-hydroxy-3-(4-(4-(trifluoromethoxy)phenyl)-piperazin-1-yl)butanamide]",IC50,[1],1800 ± 240 nM
same,IC50,HEK-293 cells,2900 ± 120 nM
same,RAWM number of errors,[2],better than untreated TG
same,RAWM total time spent,[2],better than untreated TG
same,IC50,[3],1000 nM
same,IC50,VDAC1,1900 nM
